Source: patent US20100286023A1, “Compositions and Methods for Increasing Muscle Mass, Strength, and Functional Performance in the Elderly” (priority 2008, published 2010)

Columns and labels:
muscle protein synthesis = details: tightly controlled laboratory setting, glucose infused to maintain euglycemia; cited from earlier work
anesthetized rabbits = test: Amino acid infusion with arginine raised to about 50% of the mixture (Example 6); type: in vivo, rabbit
Text: Muscle protein synthesis was stimulated in anesthetized rabbits when arginine was increased to about 50% of the total mixture of amino acids infused. […] The mechanism by which arginine activates the initiation of protein synthesis is the same as leucine. Further, arginine is relatively deficient in the elderly. Thus, addition of arginine may work in concert with leucine to activate protein synthesis in elderly.

| Compound | Effect on muscle protein synthesis compared with EAAs (muscle protein synthesis) | Muscle protein synthesis (anesthetized rabbits; arginine about 50% of the total mixture of amino acids infused) | Muscle protein breakdown (anesthetized rabbits; arginine added to the amino acid solution) | Net muscle catabolism (anesthetized rabbits; post-absorptive rabbits) |
| --- | --- | --- | --- | --- |
| insulin: hormone, pharmacological treatment compared with EAAs | in the same range of effectiveness as EAAs |  |  |  |
| N=C(N)NCCC[C@H](N)C(=O)O [arginine] |  | stimulated | unchanged | virtually completely reversed |
